Measurements as given in US6133304A, “ACE inhibitor-MMP inhibitor combinations” (priority 2000, dated 2000).

Tests used:
[1] = test system: spontaneously hypertensive heart failure (SHHF) rats; assay: 8-month progression study in SHHF rats (Example 1); type: in vivo, rat; details: for LVEDP (left ventricular end-diastolic pressure) / LVESP (left ventricular end-systolic pressure) / LVV-OP: SHHF rats, 8 months in diet; for LVEDP (left ventricular end-diastolic pressure) / LVESP (left ventricular end-systolic pressure): PD 166793 5 mg/kg/day, quinapril 10 mg/kg/day or both; for LVV-OP: left ventricular pressure volume relations, KCl arrested heart
Procedure: Five groups of rats (n=14 per group) were tested: 17-month-old normotensive Fischer control Rats (F-1 7); vehicle treated 17-month-old SHHF Rats (SHHF-17); PD 166793-0000 (Lot Y) SHHF Rats (SHHF-793); Quinapril (PD 109452-0002, Lot Y) SHHF Rats (SHHF-Q); PD 166793 +Quinapril SHHF Rats (SHHF-793Q). Naive Fischer rats were acclimatized 2 weeks prior to testing. All SHHF rats were maintained in-house, administered drug for 8 months, and then cardiovascular tests were performed and tissue samples taken. The primary endpoint for the study was the prevention of cardiac dilation as determined by left ventricular pressure volume relations in the excised KCI arrested heart.
Drug Administration: All SHHF rats were fed powdered rat chow for 1 week prior to drug administration, and daily food consumption was measured by weighing the foodcups. Drug was added to powdered rat chow so that rats consumed their daily dose of PD 166793 (5 mg/kg/day), quinapril (10 mg/kg/day), or both drugs in combination. Food consumption was monitored twice weekly.
Terminal Cardiovascular Test: Rats were anesthetized with isoflurane for terminal testing. Isoflurane was administered using a mask until the rats are anesthetized and a tracheotomy performed. The rats were respired using a ventilator (A.D.S. 1000, Engler Engineering Corp., Hialeah, Fla.). Cardiac function was assessed in closed-chest rats by measuring LV dP/dt, LV end-diastolic pressure (EDP), heart rate, and aortic blood pressure using a Millar pressure transducer inserted through the right carotid. Physiological data was recorded at 500 Hz, and a logging rate of 5 seconds was used to average data. […] Baseline measurements were made when the rats reached a stable plateau of anesthesia. Normotensive rats had their blood pressure increased by partial occlusion of the aorta so that cardiovascular function could be assessed at a pressure of 180 mmHg, the projected blood pressure of SHHF rats. Approximately 4 to 5 mL of blood were withdrawn in ice-cold syringes and then transferred to ice-cold EDTA tubes. Blood was centrifuged at 4500 RPM for 10 minutes so that plasma could be stored for drug measurements, and measuring collagen breakdown products. The heart was arrested with KCl and rapidly excised. A glass cannula was inserted through the aorta into the LV chamber, and secured into place by a ligature around the atrio-ventricular groove. Cardiac dilation was measured by generating left ventricular pressure volume (PV) curves. The PV curves was generated by evacuating the LV of saline and then filling the LV at a fixed rate using a programmable pump set at a 1 mL/min flow rate. The PV curves were recorded on a Po-Ne-Mah digital data acquisition system. A 2 to 3 mm cross-section of the heart was removed (at the level of the papillary muscles). The remainder of the heart was rapidly divided into RV and LV tissue that was frozen in liquid N2 for subsequent weighing and biochemical analysis. The cross-sections were fixed in buffered formalin for histology. This procedure will allow LV, and RV weights to be determined and hypertrophy to be assessed.

[2] = test system: spontaneously hypertensive heart failure (SHHF) rats; assay: previous 4-month experiment in SHHF rats; type: in vivo, rat; details: for cardiac dilation, in words / left ventricular (LV) systolic function, in words: 4 months
MMP-3 (stromelysin) = MMP-3 (stromelysin) (Homo sapiens, UniProt P08254); assay: thiopeptolide substrate hydrolysis assay, MMP-3; type: biochemical; details: pH 6.0, 22° C., read-out: IC50 MMP3
Procedure: The assays measure the amount by which a test compound reduces the hydrolysis of a thiopeptolide substrate caused by a matrix metalloproteinase enzyme.
Thiopeptolide substrates show virtually no decomposition or hydrolysis in the absence of a matrix metalloproteinase enzyme. A typical thiopeptolide substrate commonly utilized for assays is Ac-Pro-Leu-Gly-thioester-Leu-Leu-Gly-O Et. […] Assays are carried out with and without matrix metalloproteinase inhibitor compounds, and the amount of hydrolysis is compared for a determination of inhibitory activity of the test compounds.

[3] = test system: pigs subjected to rapid pacing; assay: rapid-paced pig model of heart failure (Example 2); type: in vivo; details: for LV End-Systolic Pressure / Pulmonary Vascular Resistance / Systemic Vascular Resistance / Plasma Norepinephrine: Day 21 of pacing, 793 2 mg/kg/day PO, F […] BID PO; for LV End-Systolic Pressure / Pulmonary Vascular Resistance / Systemic Vascular Resistance: pacer off; for LV End-Systolic Pressure / Plasma Norepinephrine: spread printed in the next line; for Pulmonary Vascular Resistance / Systemic Vascular Resistance: spread printed in the next lines; for LV end-diastolic dimension (dilation), in words / LV wall stress, in words: echocardiography, 3-week pacing period
in vivo = details: pig, po, 2 mg/kg/day
[4] = PD 166793 plasma levels in SHHF rats (Example 1); type: in vivo; details: rat, po, 5 mg/kg/day PD 166793 in diet, 8 months
Procedure: Drug Administration: […] Food consumption was monitored twice weekly. Terminal Cardiovascular Test: Rats were anesthetized with isoflurane for terminal testing. Isoflurane was administered using a mask until the rats are anesthetized and a tracheotomy performed. The rats were respired using a ventilator ([…] Engineering Corp., Hialeah, Fla.). Cardiac function was assessed in closed-chest rats by measuring LV dP/dt, LV end-diastolic pressure (EDP), heart rate, and aortic blood pressure using a Millar pressure transducer inserted through the right carotid. Physiological data was recorded at 500 Hz, and a logging rate of 5 seconds was used to average data. […] Baseline measurements were made when the rats reached a stable plateau of anesthesia. […] Approximately 4 to 5 mL of blood were withdrawn in ice-cold syringes and then transferred to ice-cold EDTA tubes. […] The heart was arrested with KCl and rapidly excised. A glass cannula was inserted through the aorta into the LV chamber, and secured into place by a ligature around the atrio-ventricular groove. Cardiac dilation was measured by generating left ventricular pressure volume (PV) curves. […] The PV curves were recorded on a Po-Ne-Mah digital data acquisition system. […] This procedure will allow LV, and RV weights to be determined and hypertrophy to be assessed.

fibroblast = details: tissue culture cells; cited from earlier work
[5] = relative to untreated rapid-paced pigs, FIG. 5

MMP-3 (stromelysin), sequence (P08254 100-272 limits assumed): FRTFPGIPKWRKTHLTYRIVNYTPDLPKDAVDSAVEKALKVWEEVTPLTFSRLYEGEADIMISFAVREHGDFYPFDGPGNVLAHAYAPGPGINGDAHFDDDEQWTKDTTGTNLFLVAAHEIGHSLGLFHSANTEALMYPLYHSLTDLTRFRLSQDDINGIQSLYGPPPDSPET

Structure (SMILES) | LVEDP (left ventricular end-diastolic pressure) [1] [mmHg] | LVESP (left ventricular end-systolic pressure) [1] [mmHg] | LVV-OP [1] [µL] | cardiac dilation, in words [2] | left ventricular (LV) systolic function, in words [2] | LV End-Systolic Pressure [3] [mmHg] | Pulmonary Vascular Resistance [3] [dynes*s*cm^-5] | Systemic Vascular Resistance [3] [dynes*s*cm^-5] | Plasma Norepinephrine [3] [pg/mL] | LV end-diastolic dimension (dilation), in words [3] | LV wall stress, in words [3] | also measured
CCOC(=O)[C@H](CCc1ccccc1)N[C@@H](C)C(=O)N1Cc2ccccc2C[C@H]1C(=O)O [quinapril] | 17 ± 4 | 190 ± 7 | 603 ± 99 | A similar effect was also observed | A similar effect was also observed |  |  |  |  |  |  | LV weight, in words ([1]; compared to the vehicle control group): reduced
CC(C)CC(CC(=O)NO)C(=O)N[C@@H](CC(C)C)C(=O)N[C@@H](Cc1ccccc1)C(N)=O (stereo partly shown) [U24522] |  |  |  |  |  |  |  |  |  |  |  | IC50 (MMP-3 (stromelysin)): 20 nM
CCC(=O)O[C@@H](O[P@](=O)(CCCCc1ccccc1)CC(=O)N1C[C@H](C2CCCCC2)C[C@H]1C(=O)O)C(C)C [fosinopril] |  |  |  |  |  | 100 | 266 | 1529 | 618 | reduce wall stress and end diastolic dimension | reduce wall stress | systolic function, slope of circumferential velocity over end-systolic stress relation (Vcfc-ES Stress), in words ([3]; compared to nontreated rapid-paced animals, FIG. 4): significantly improved systolic function; LV end-diastolic dimension (dilation), in words ([3]; listed as Fosinopril): more effective than the PD 166793 in reducing dilation; systolic function measured as preload recruitable stroke work (PRSW), in words ([3]; rapid-paced pigs, FIG. 3): improved systolic function to the greatest extent
CC(C)C(NS(=O)(=O)c1ccc(-c2ccc(Br)cc2)cc1)C(=O)O (stereo not shown) [PD 166793, 2-(4'-bromobiphenyl-4-sulfonylamino)-3-methyl-butyric acid] | 18 ± 3 | 188 ± 8 | 820 ± 58 | significantly reducing cardiac dilation | maintaining left ventricular (LV) systolic function | 110 | 417 | 2784 | 736 | reduce wall stress and end diastolic dimension | reduce wall stress | LV chamber stiffness, in words [3, 5]: increased both LV chamber stiffness and myocardial stiffness; myocardial stiffness, in words [3, 5]: increased both LV chamber stiffness and myocardial stiffness; concentration at 1 h (in vivo): 10800 ± 1200 ng/mL; mechanism (vasodilator, anti-hypertrophic), in words [2]: neither a vasodilator, nor an anti-hypertrophic; concentration at 5840 h [4]: 50100 ± 7100 ng/mL
NNC(=O)c1ccccc1 [Benzoic hydrazide, benzoic hydrazide] |  |  |  |  |  |  |  |  |  |  |  | collagen synthesis, in words (fibroblast): suppress collagen synthesis; fibroblast proliferation, in words (fibroblast): suppress collagen synthesis and fibroblast proliferation
